According to ChEMBL document CHEMBL4425099, “Use of Osmotic Pumps to Establish the Pharmacokinetic-Pharmacodynamic Relationship and Define Desirable Human Performance Characteristics for Aggrecanase Inhibitors” (J Med Chem, 2016):

Key:
Interstitial collagenase = biological target: T1, Interstitial collagenase (Homo sapiens, UniProt P03956); assay: Inhibition of human MMP1 using Mca-PQGL-(3-[2,4-dinitrophenyl]-L-2,3-diaminopropionyl)-AR-OH as substrate measured after 2 to 4 hrs by fluorescence analysis
T1 sequence (P03956 whole entry): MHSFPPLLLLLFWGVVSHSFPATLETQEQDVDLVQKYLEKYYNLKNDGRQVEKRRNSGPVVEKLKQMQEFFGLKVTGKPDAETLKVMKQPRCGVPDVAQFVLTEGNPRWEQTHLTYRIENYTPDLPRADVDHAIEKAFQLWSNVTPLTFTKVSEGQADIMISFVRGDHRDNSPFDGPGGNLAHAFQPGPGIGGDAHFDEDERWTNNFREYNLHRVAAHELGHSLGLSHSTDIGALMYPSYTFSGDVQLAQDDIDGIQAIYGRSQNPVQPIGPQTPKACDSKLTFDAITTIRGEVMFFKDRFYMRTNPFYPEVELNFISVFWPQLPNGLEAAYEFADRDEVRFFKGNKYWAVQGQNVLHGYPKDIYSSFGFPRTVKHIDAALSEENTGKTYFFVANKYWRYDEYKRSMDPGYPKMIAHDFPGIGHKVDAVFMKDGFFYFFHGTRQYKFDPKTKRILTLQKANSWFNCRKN

Homo sapiens [1] = species on record: Homo sapiens; assay: Selectivity ratio of IC50 for human MMP9 to IC50 for human ADAMTS5
[2] = biological target: Matrix metalloproteinase-14 (Homo sapiens, UniProt P50281); assay: Inhibition of human MMP14 using Mca-PQGL-(3-[2,4-dinitrophenyl]-L-2,3-diaminopropionyl)-AR-OH as substrate measured after 2 to 4 hrs by fluorescence analysis
[3] = biological target: T2, A disintegrin and metalloproteinase with thrombospondin motifs 4 (Homo sapiens, UniProt O75173); assay: Inhibition of human ADAMTS4 using 43-mer VQTVTWPDMELPLPRNITEGEARGSVILTVKPIFEVSPSPLKG as substrate measured after 3 hrs by AlphaScreen assay
T2 sequence (O75173 whole entry): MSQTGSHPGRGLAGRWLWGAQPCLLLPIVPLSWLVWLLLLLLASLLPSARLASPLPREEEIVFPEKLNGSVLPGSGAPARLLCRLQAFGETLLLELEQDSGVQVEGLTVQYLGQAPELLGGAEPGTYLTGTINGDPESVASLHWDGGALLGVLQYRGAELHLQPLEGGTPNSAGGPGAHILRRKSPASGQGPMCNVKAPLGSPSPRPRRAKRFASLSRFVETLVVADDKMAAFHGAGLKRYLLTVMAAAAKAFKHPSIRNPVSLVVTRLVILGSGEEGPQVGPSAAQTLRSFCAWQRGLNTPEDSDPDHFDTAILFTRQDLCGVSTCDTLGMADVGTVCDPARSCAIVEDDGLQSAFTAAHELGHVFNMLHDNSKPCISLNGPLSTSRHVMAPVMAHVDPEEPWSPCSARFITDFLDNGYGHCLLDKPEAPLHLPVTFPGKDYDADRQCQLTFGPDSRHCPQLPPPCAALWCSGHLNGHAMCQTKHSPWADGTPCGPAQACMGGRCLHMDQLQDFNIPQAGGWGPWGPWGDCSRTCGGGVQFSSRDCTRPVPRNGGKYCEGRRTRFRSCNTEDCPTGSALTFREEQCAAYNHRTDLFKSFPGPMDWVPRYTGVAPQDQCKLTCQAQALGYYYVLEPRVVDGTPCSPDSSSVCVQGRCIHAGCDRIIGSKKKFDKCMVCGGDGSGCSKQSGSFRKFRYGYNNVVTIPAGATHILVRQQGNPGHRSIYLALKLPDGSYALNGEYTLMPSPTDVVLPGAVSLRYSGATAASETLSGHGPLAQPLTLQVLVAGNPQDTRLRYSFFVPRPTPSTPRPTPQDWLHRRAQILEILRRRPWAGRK

[4] = biological target: 72 kDa type IV collagenase (Homo sapiens, UniProt P08253); assay: Inhibition of human MMP2 using Mca-PQGL-(3-[2,4-dinitrophenyl]-L-2,3-diaminopropionyl)-AR-OH as substrate measured after 2 to 4 hrs by fluorescence analysis
Homo sapiens [5] = species on record: Homo sapiens; assay: Selectivity ratio of IC50 for human MMP2 to IC50 for human ADAMTS4
Homo sapiens [6] = species on record: Homo sapiens; assay: Selectivity ratio of IC50 for human MMP3 to IC50 for human ADAMTS5
Homo sapiens [7] = species on record: Homo sapiens; assay: Selectivity ratio of IC50 for human MMP3 to IC50 for human ADAMTS4
Homo sapiens [8] = species on record: Homo sapiens; assay: Selectivity ratio of IC50 for human MMP14 to IC50 for human ADAMTS4
[9] = Ratio of plasma concentration in Lewis rat at 10 mg/kg, po bid measured after 8 hrs to IC50 for human ADAMTS5 in presence of rat plasma; assay type: ADME, organism-based; details: in vivo
Rattus norvegicus [10] = assay: Reduction in ADAMTS-4/ADAMTS-5 mediated aggrecan cleavage products in Lewis rat model of MIA assessed as aggrecanase-cleaved fragments at 100 mg/kg, po bid administered post 3 days MIA induction measured after 4 hrs of last dosage on day 7 by NITEGE sandwich ELISA; assay type: functional
[11] = Plasma concentration in Lewis rat model of MIA at 100 mg/kg, po bid administered post 3 days MIA induction measured after 4 hrs of last dosage on day 7; assay type: ADME, organism-based
[12] = Ratio of plasma concentration in Lewis rat model of MIA at 100 mg/kg, po bid administered post 3 days MIA induction measured after 4 hrs of last dosage on day 7 to IC50 for human ADAMTS5 in presence of Lewis rat plasma; assay type: ADME, organism-based; details: in vivo
[13] = Plasma concentration in Lewis rat model of MIA at 30 mg/kg, po bid administered post 3 days MIA induction measured after 4 hrs of last dosage on day 7; assay type: ADME, organism-based
[14] = Ratio of plasma concentration in Lewis rat model of MIA at 10 mg/kg, po bid administered post 3 days MIA induction measured after 4 hrs of last dosage on day 7 to IC50 for human ADAMTS5 in presence of Lewis rat plasma; assay type: ADME, organism-based; details: in vivo
Rattus norvegicus [15] = assay: Reduction in ADAMTS-4/ADAMTS-5 mediated aggrecan cleavage products in Lewis rat model of MIA assessed as aggrecanase-cleaved fragments at 10 mg/kg, po bid administered post 3 days MIA induction measured after 4 hrs of last dosage on day 7 by NITEGE sandwich ELISA; assay type: functional
Rattus norvegicus [16] = assay: Reduction in ADAMTS-4/ADAMTS-5 mediated aggrecan cleavage products in Lewis rat model of MIA assessed as aggrecanase-cleaved fragments at 30 mg/kg, po bid administered post 3 days MIA induction measured after 4 hrs of last dosage on day 7 by NITEGE sandwich ELISA; assay type: functional
[17] = biological target: Disintegrin and metalloproteinase domain-containing protein 17 (Homo sapiens, UniProt P78536); assay: Inhibition of human TACE using Mca-PQGL-(3-[2,4-dinitrophenyl]-L-2,3-diaminopropionyl)-AR-OH as substrate measured after 2 to 4 hrs by fluorescence analysis
[18] = Cmax in Lewis rat plasma at 10 mg/kg, po; assay type: ADME, organism-based; parameters: dose 10 mg/kg, route oral

Sequence of Disintegrin and metalloproteinase domain-containing protein 17 (P78536 whole entry, the tested form may be a part): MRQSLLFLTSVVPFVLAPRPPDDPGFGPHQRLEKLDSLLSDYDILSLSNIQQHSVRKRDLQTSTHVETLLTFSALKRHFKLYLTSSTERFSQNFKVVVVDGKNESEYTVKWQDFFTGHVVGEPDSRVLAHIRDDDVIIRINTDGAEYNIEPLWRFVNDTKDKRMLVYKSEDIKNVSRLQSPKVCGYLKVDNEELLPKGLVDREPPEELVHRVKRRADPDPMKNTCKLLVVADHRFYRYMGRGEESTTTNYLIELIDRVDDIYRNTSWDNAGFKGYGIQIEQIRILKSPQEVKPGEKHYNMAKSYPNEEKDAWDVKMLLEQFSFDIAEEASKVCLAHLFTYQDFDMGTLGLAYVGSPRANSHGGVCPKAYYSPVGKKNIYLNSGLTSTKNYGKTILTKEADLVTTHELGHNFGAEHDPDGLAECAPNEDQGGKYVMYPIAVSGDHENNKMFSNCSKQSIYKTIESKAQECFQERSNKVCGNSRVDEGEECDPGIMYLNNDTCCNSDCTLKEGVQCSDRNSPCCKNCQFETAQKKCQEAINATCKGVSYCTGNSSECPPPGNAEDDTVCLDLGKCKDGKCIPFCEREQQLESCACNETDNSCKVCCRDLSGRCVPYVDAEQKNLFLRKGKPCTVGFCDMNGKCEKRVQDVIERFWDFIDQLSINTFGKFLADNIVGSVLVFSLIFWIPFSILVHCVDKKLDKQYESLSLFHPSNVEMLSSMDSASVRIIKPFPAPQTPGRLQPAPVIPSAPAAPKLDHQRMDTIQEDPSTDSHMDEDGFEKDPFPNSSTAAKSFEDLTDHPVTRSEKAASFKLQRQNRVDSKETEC
Sequence of 72 kDa type IV collagenase (P08253 whole entry): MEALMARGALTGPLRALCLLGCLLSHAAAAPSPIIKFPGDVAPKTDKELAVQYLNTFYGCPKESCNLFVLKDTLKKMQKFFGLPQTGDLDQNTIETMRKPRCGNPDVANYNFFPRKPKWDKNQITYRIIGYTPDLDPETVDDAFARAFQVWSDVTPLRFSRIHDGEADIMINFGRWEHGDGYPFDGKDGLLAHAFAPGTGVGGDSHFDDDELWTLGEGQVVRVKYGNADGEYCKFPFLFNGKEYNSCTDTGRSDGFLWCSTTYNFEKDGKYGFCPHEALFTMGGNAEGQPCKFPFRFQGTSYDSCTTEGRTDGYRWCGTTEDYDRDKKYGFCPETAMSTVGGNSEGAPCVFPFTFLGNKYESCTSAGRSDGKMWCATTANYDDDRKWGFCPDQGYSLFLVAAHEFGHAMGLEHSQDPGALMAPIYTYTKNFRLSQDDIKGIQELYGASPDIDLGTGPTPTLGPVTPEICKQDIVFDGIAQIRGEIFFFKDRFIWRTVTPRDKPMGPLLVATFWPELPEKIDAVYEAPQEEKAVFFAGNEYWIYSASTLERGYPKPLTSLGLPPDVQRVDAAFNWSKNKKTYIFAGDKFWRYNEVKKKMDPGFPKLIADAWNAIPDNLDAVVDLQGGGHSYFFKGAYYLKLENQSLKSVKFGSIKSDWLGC

IC50 (Interstitial collagenase) [µM]	Ratio IC50 (Homo sapiens [1])	IC50 [2] [µM]	IC50 [3] [µM]	IC50 [4] [µM]	Ratio IC50 (Homo sapiens [5])	Ratio IC50 (Homo sapiens [6])	Ratio IC50 (Homo sapiens [7])	Ratio IC50 (Homo sapiens [8])	Ratio [9]	concentration at 4 h [11] [µM]	Ratio [12]	concentration at 4 h [13] [µM]	Ratio [14]	IC50 [17] [µM]	Cmax [18] [µM]	Structure (SMILES)	inhibition in vivo at 100 mg/kg (Rattus norvegicus [10]) [%]	inhibition in vivo at 10 mg/kg (Rattus norvegicus [15]) [%]	inhibition in vivo at 30 mg/kg (Rattus norvegicus [16]) [%]
50	> 1000	7.6	0.006	5.8	> 1000	> 1000	> 1000	> 1000	24							O=C1NC(=O)[C@](CNC(=O)c2cc3cc(C(F)(F)F)ccc3o2)(C2CC2)N1			
100	> 1000				> 1000	> 1000	> 1000	> 1000	6.3	11	310	1.6	15			Cn1ccnc1[C@]1(CNC(=O)c2cc3cc(C(F)(F)F)ccc3o2)NC(=O)NC1=O	68	32	53
100	> 1000	78	0.004	11	> 1000	> 1000	> 1000	> 1000	4.3	11	160	3.6	14	10	18	CCn1ccnc1[C@]1(CNC(=O)c2cc3cc(C(F)(F)F)ccc3o2)NC(=O)NC1=O	49	19	35
100	> 1000	57	0.004	11	> 1000	> 1000	> 1000	> 1000	7.7	31	490	4.8	22	10	11	Cc1cnc([C@]2(CNC(=O)c3cc4cc(C(F)(F)F)ccc4o3)NC(=O)NC2=O)n1C	62	17	45
19	> 1000	37	0.003	3.2	> 1000	> 1000	> 1000	> 1000	3.3					10	11	Cn1ccnc1[C@]1(CNC(=O)c2cc3cc(Cl)ccc3o2)NC(=O)NC1=O			
	> 1000	26	0.006	2.4	> 1000	> 1000	> 1000	> 1000	4.1					8.9	18	Cc1cnc([C@]2(CNC(=O)c3cc4cc(Cl)ccc4o3)NC(=O)NC2=O)n1C			
	> 1000	34	0.008	3.5	> 1000	> 1000	> 1000	> 1000	1.2					10	23	CCn1ccnc1[C@]1(CNC(=O)c2cc3cc(Cl)ccc3o2)NC(=O)NC1=O			
